Experiments:
[1] = target: T1, mouse DGAT1 (Mus musculus, UniProt Q9Z2A7); test: DGAT1 inhibitory effect test (microsome fraction, [14C]-oleoyl-CoA, triglyceride radioactivity by TLC); format: biochemical; details: 0.5 h; concentration of the test compound 0.1 μg/ml; mouse DGAT1 microsomes, 23° C., 30 minutes; read-out: Inhibitory ratio
T1 construct: made in house; host or cells: insect cells (High Five, Sf9, Sf21, etc.), baculovirus expression system (Invitrogen)
T1 sequence (Q9Z2A7 1-498): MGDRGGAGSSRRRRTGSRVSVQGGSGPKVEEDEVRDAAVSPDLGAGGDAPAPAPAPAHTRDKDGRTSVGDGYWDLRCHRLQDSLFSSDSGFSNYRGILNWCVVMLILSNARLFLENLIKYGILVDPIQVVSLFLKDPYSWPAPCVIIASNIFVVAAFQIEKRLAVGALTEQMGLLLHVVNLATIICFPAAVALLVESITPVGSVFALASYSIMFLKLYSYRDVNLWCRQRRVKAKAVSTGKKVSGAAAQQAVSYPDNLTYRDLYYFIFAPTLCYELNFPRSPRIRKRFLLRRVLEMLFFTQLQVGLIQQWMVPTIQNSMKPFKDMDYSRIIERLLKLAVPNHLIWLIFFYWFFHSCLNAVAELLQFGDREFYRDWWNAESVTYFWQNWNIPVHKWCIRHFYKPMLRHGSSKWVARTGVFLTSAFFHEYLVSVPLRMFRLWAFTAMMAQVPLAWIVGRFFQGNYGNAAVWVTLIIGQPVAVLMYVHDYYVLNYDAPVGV
Method in brief: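 Inhibition was scored from radiolabelled triglyceride separated by TLC, relative to vehicle and net of a 0-min background. The reaction ran for 30 min at room temperature (23 °C) in Tris-HCl pH 8.0 with MgCl2, BSA and Triton X-100. Substrates were 30 μM [14C]-oleoyl-CoA and 0.5 mM dioleoylglycerol, with mouse DGAT1 microsomes from baculovirus-infected insect cells as enzyme.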

| Structure (SMILES) | inhibition at 0.1 µg/mL [1] [%] | melting point |
| --- | --- | --- |
| Cc1cnc(NC(=O)Nc2ccc(N3CCN(C(=O)Nc4ccc(OCCO)cc4C(F)(F)F)CC3)cc2)s1 [Example 213, 4-{4-[3-(5-methyl-thiazol-2-yl)-ureido]-phenyl}-piperazine-1-carboxylic acid [4-(2-hydroxy-ethoxy)-2-trifluoromethyl-phenyl]-amide] | ≥ 50 | 118 to 120 °C |
| CCOc1cccc(NC(=O)Nc2ccc(N3CCN(C(=O)Nc4ncccc4C)CC3)cc2)c1 [Example 305, 4-{4-[3-(3-ethoxy-phenyl)-ureido]-phenyl}-piperazine-1-carboxylic acid (3-methyl-pyridin-2-yl)-amide] | ≥ 50 | 171 to 173 °C |
| COc1ccc(C)cc1NC(=O)Nc1ccc2c(c1)CCN(C(=O)Nc1ccc(OCCO)cc1C(F)(F)F)C2 [Example 226, 6-[3-(2-methoxy-5-methyl-phenyl)-ureido]-3,4-dihydro-1H-isoquinoline-2-carboxylic acid [4-(2-hydroxy-ethoxy)-2-trifluoromethyl-phenyl]-amide] | ≥ 50 | 122 to 124 °C |
| COc1ccc(C)cc1NC(=O)Nc1ccc(N2CCN(C(=O)Nc3ccc(OCCO)cc3C(F)(F)F)CC2)cc1 [Example 209, 4-{4-[3-(2-methoxy-5-methyl-phenyl)-ureido]-phenyl}-piperazine-1-carboxylic acid [4-(2-hydroxy-ethoxy)-2-trifluoromethyl-phenyl]-amide] | ≥ 50 | 175 to 177 °C |
| COc1ccc(C)cc1NC(=O)Nc1ccc(N2CCN(C(=O)Nc3c(Cl)cccc3Cl)CC2)nc1 [Example 140, 4-{5-[3-(2-methoxy-5-methyl-phenyl)-ureido]-pyridin-2-yl}-piperazine-1-carboxylic acid (2,6-dichloro-phenyl)-amide] | ≥ 50 | 222 to 224 °C |
| CCOc1ccc(F)cc1NC(=O)Nc1ccc(N2CCN(C(=O)Nc3ncccc3C)CC2)nc1 [Example 300, 4-{5-[3-(2-ethoxy-5-fluoro-phenyl)-ureido]-pyridin-2-yl}-piperazine-1-carboxylic acid (3-methyl-pyridin-2-yl)-amide] | ≥ 50 | 180 to 185 °C |
| COc1ccc(Cl)cc1NC(=O)Nc1ccc(N2CCN(C(=O)OC(C)(C)C)CC2)nc1 [Example 40, 4-{5-[3-(5-chloro-2-methoxy-phenyl)-ureido]-pyridin-2-yl}-piperazine-1-carboxylic acid tert-butyl ester] | ≥ 50 | 155 to 157 °C |
| Cc1cccc(Cl)c1NC(=O)N1CCN(c2ccc(NC(=O)Nc3ccccc3Cl)cc2)CC1 [Example 126, 4-{4-[3-(2-chloro-phenyl)-ureido]-phenyl}-piperazine-1-carboxylic acid (2-chloro-6-methyl-phenyl)-amide] | ≥ 50 | > 260 °C (dec.) |
| COc1ccc(F)cc1NC(=O)Nc1ccc(N2CCN(C(=O)Nc3c(Cl)cccc3Cl)CC2)cc1 [Example 101, 4-{4-[3-(5-fluoro-2-methoxy-phenyl)-ureido]-phenyl}-piperazine-1-carboxylic acid (2,6-dichloro-phenyl)-amide] | ≥ 50 | 235 to 237 °C |
| CCOc1ccc(F)cc1NC(=O)Nc1ccc(N2CCN(C(=O)Nc3ccc(OC)cc3C)CC2)cc1 [Example 112, 4-{4-[3-(2-ethoxy-5-fluoro-phenyl)-ureido]-phenyl}-piperazine-1-carboxylic acid (4-methoxy-2-methyl-phenyl)-amide] | ≥ 50 | 186 to 189 °C |
| COc1ccc(C)cc1NC(=O)Nc1ccc(N2CCCN(C(=O)Nc3ccc(OCCO)cc3C(F)(F)F)CC2)cc1 [Example 218, 4-{4-[3-(2-methoxy-5-methyl-phenyl)-ureido]-phenyl}-perhydro-1,4-diazepine-1-carboxylic acid [4-(2-hydroxy-ethoxy)-2-trifluoromethyl-phenyl]-amide] | ≥ 50 | 118 to 120 °C |
| Cc1cccnc1NC(=O)N1CCN(c2ccc(NC(=O)Nc3ccccc3F)cc2)CC1 [Example 295, 4-{4-[3-(2-fluoro-phenyl)-ureido]-phenyl}-piperazine-1-carboxylic acid (3-methyl-pyridin-2-yl)-amide] | ≥ 50 | > 250 °C (dec.) |
| COc1ccc(C)cc1NC(=O)Nc1ccc(N2CCN(C(=O)Nc3ccc(Br)cc3Cl)CC2)cc1 [Example 129, 4-{4-[3-(2-methoxy-5-methyl-phenyl)-ureido]-phenyl}-piperazine-1-carboxylic acid (4-bromo-2-chloro-phenyl)-amide] | ≥ 50 | 140 to 142 °C |
| O=C(Nc1ccc(N2CCN(C(=O)Nc3ccc(OCCO)cc3C(F)(F)F)CC2)c(Cl)c1)Nc1ccccc1F [Example 221, 4-{2-chloro-4-[3-(2-fluoro-phenyl)-ureido]-phenyl}-piperazine-1-carboxylic acid [4-(2-hydroxy-ethoxy)-2-trifluoromethyl-phenyl]-amide] | ≥ 50 | 199 to 200 °C |

Now from value to molecule:

| inhibition at 0.1 µg/mL [1] [%] | melting point | Structure (SMILES) |
| --- | --- | --- |
| ≥ 50 | 146 to 148 °C | CCOc1ccc(Cl)cc1NC(=O)Nc1ccc(N2CCN(C(=O)Nc3c(F)cccc3C(F)(F)F)CC2)cc1 [Example 105, 4-{4-[3-(5-chloro-2-ethoxy-phenyl)-ureido]-phenyl}-piperazine-1-carboxylic acid (2-fluoro-6-trifluoromethyl-phenyl)-amide] |
| ≥ 50 | 186 to 187 °C | CCOc1ccc(F)cc1NC(=O)Nc1ccc(N2CCN(C(=O)Nc3ccccc3C)CC2)cc1 [Example 90, 4-{4-[3-(2-ethoxy-5-fluoro-phenyl)-ureido]-phenyl}-piperazine-1-carboxylic acid o-tolylamide] |
| ≥ 50 | 212 to 214 °C | COc1ccc(NC(=O)N2CCN(c3ccc(NC(=O)Nc4cc(F)ccc4OC)cn3)CC2)c(C)c1 [Example 153, 4-{5-[3-(5-fluoro-2-methoxy-phenyl)-ureido]-pyridin-2-yl}-piperazine-1-carboxylic acid (4-methoxy-2-methyl-phenyl)-amide] |
| ≥ 50 | 159 to 161 °C | CCOc1ccc(C)cc1NC(=O)Nc1ccc(N2CCN(C(=O)Nc3c(Cl)cccc3Cl)CC2)cc1 [Example 134, 4-{4-[3-(2-ethoxy-5-methyl-phenyl)-ureido]-phenyl}-piperazine-1-carboxylic acid (2,6-dichloro-phenyl)-amide] |
| ≥ 50 | 198 to 199 °C | COc1ccc(C)cc1NC(=O)Nc1ccc(N2CCN(C(=O)Nc3c(C)cccc3N)CC2)cc1 [Example 167, 4-{4-[3-(2-methoxy-5-methyl-phenyl)-ureido]-phenyl}-piperazine-1-carboxylic acid (2-amino-6-methyl-phenyl)-amide] |
| ≥ 50 | > 240 °C (dec.) | COc1ccc(C)cc1NC(=O)Nc1ccc(N2CCCN(C(=O)Nc3c(C)cccc3C)CC2)cc1 [Example 201, 4-{4-[3-(2-methoxy-5-methyl-phenyl)-ureido]-phenyl}-perhydro-1,4-diazepine-1-carboxylic acid (2,6-dimethyl-phenyl)-amide] |
| ≥ 50 | 161 to 163 °C | COc1ccc(C)cc1NC(=O)Nc1ccc(N2CCN(C(=O)Nc3c(C)cccc3Cl)C(C)C2)cc1 (centres unmarked) [Example 198, 4-{4-[3-(2-methoxy-5-methyl-phenyl)-ureido]-phenyl}-2-methyl-piperazine-1-carboxylic acid (2-chloro-6-methyl-phenyl)-amide] |
| ≥ 50 | 115 to 116 °C | CSc1ccccc1NC(=O)Nc1ccc(N2CCN(C(=O)Nc3ccc(OCCO)cc3C(F)(F)F)CC2)cc1 [Example 241, 4-{4-[3-(2-methylsulfanyl-phenyl)-ureido]-phenyl}-piperazine-1-carboxylic acid [4-(2-hydroxy-ethoxy)-2-trifluoromethyl-phenyl]-amide] |
| ≥ 50 | 203 to 205 °C | COc1ccc(Cl)cc1NC(=O)Nc1ccc(N2CCN(C(=O)Nc3ncccc3C)CC2)nc1 [Example 308, 4-{5-[3-(5-chloro-2-methoxy-phenyl)-ureido]-pyridin-2-yl}-piperazine-1-carboxylic acid (3-methyl-pyridin-2-yl)-amide] |
| ≥ 50 | 206 to 210 °C | CCCCCCNC(=O)Nc1ccc(N2CCN(C(=O)Nc3c(C)cccc3Cl)CC2)cc1 [Example 206, 4-[4-(3-hexyl-ureido)-phenyl]-piperazine-1-carboxylic acid (2-chloro-6-methyl-phenyl)-amide] |
| ≥ 50 | 227 to 228 °C | COc1ccc(F)cc1NC(=O)Nc1ccc(N2CCN(C(=O)Nc3c(C)cccc3Cl)CC2)nc1 [Example 148, 4-{5-[3-(5-fluoro-2-methoxy-phenyl)-ureido]-pyridin-2-yl}-piperazine-1-carboxylic acid (2-chloro-6-methyl-phenyl)-amide] |

From US20070249620A1, “Urea Derivative” (priority 2004, published 2007)
